Results on four compounds are retold here after paper PMC5564600 (Oncotarget, 2017).

Where two headings read alike, the source gives them in different places.

What all share (assay): biochemical
Assay type in all cases: binding

In assay [1] the target is T1, panel of 442 kinases (Homo sapiens, UniProt P00519, M351T).
T1 construct: purchased Ambit Biosciences (scanMAXX KINOMEscan)
Conditions: ABL1(M351T)-phosphorylated; for remaining activity at 1 µM: read-out: % of control at 1 µM.

Assay [2] deals with T2, panel of 442 kinases (Homo sapiens, UniProt P07332).
T2 construct: purchased Ambit Biosciences (scanMAXX KINOMEscan)
The note with it: FES; for remaining activity at 1 µM: read-out: % of control at 1 µM.

Assay [3] has as its target T3, panel of 442 kinases (Homo sapiens, UniProt P08069).
T3 construct: purchased Ambit Biosciences (scanMAXX KINOMEscan)
Conditions: kinase IGF1R; for remaining activity at 1 µM: read-out: % of control at 1 µM.

For assay [4], the target named is T4, panel of 442 kinases (Homo sapiens, UniProt P12931).
T4 construct: purchased Ambit Biosciences (scanMAXX KINOMEscan)
The note with it: kinase SRC; for remaining activity at 1 µM: read-out: SRC (% of control at 1 µM).

The target of assay [5] is T5, panel of 442 kinases (Homo sapiens, UniProt P15056).
T5 construct: purchased Ambit Biosciences (scanMAXX KINOMEscan)
Conditions: BRAF; for remaining activity at 1 µM: read-out: % of control at 1 µM.

The target of assay [6] is T6, panel of 442 kinases (Homo sapiens, UniProt P29597).
T6 construct: purchased Ambit Biosciences (scanMAXX KINOMEscan)

Assay [7] addresses T7, panel of 442 kinases (Homo sapiens, UniProt P42345).
T7 construct: purchased Ambit Biosciences (scanMAXX KINOMEscan)
Conditions: kinase MTOR; for remaining activity at 1 µM: read-out: % of control at 1 µM.

Assay [8] has as its target T8, panel of 442 kinases (Homo sapiens, UniProt P53671).
T8 construct: purchased Ambit Biosciences (scanMAXX KINOMEscan)
Conditions: kinase LIMK2; for remaining activity at 1 µM: read-out: % of control at 1 µM.

For assay [9], the target named is T9, panel of 442 kinases (Homo sapiens, UniProt Q02763).
T9 construct: purchased Ambit Biosciences (scanMAXX KINOMEscan)
The note with it: kinase TIE2; for remaining activity at 1 µM: read-out: TIE2 (% of control at 1 µM).

For assay [10], the target named is T10, panel of 442 kinases (Homo sapiens, UniProt Q15139).
T10 construct: purchased Ambit Biosciences (scanMAXX KINOMEscan)
T10 sequence (Q15139 1-912): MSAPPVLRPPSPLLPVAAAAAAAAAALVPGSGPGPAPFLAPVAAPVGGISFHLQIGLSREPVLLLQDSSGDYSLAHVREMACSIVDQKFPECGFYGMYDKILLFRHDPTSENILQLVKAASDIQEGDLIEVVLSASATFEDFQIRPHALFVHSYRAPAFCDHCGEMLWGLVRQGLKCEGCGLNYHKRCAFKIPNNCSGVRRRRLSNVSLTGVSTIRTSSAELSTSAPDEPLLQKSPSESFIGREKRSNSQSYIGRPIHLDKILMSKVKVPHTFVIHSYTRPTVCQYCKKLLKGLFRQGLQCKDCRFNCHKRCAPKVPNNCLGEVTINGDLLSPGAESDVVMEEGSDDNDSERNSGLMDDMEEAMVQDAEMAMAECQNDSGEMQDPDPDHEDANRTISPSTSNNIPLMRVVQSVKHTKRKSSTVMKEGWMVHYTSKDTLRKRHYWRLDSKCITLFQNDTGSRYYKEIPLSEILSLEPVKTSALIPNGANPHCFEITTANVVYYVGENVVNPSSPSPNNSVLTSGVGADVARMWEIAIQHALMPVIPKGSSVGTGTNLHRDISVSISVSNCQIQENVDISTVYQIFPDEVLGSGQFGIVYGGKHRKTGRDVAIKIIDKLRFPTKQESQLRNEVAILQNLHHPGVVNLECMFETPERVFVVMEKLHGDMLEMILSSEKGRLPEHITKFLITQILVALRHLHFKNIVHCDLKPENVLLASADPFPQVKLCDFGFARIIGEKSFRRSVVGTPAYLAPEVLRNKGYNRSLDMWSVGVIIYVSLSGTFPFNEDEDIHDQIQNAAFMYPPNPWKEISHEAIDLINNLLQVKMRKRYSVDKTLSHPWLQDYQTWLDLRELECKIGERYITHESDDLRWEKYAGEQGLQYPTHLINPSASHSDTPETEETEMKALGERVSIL
The note with it: kinase PRKD1; for remaining activity at 1 µM: read-out: PRKD1 (% of control at 1 µM).

Assay [11] has as its target T11, panel of 442 kinases (Homo sapiens, UniProt Q15375).
T11 construct: purchased Ambit Biosciences (scanMAXX KINOMEscan)
The note with it: EPHA7; for remaining activity at 1 µM: read-out: % of control at 1 µM.

Assay [12] has as its target T12, panel of 442 kinases (Homo sapiens, UniProt Q96NX5).
T12 construct: purchased Ambit Biosciences (scanMAXX KINOMEscan)
Conditions: CAMK1G; for remaining activity at 1 µM: read-out: % of control at 1 µM.

Assay [13] addresses T13, panel of 442 kinases (Homo sapiens, UniProt Q9BUB5).
T13 construct: purchased Ambit Biosciences (scanMAXX KINOMEscan)
The note with it: kinase MKNK1; for remaining activity at 1 µM: read-out: % of control at 1 µM.

For assay [14], the target named is T14, panel of 442 kinases (Homo sapiens, UniProt Q9NRH2).
T14 construct: purchased Ambit Biosciences (scanMAXX KINOMEscan)
T14 sequence (Q9NRH2 1-765): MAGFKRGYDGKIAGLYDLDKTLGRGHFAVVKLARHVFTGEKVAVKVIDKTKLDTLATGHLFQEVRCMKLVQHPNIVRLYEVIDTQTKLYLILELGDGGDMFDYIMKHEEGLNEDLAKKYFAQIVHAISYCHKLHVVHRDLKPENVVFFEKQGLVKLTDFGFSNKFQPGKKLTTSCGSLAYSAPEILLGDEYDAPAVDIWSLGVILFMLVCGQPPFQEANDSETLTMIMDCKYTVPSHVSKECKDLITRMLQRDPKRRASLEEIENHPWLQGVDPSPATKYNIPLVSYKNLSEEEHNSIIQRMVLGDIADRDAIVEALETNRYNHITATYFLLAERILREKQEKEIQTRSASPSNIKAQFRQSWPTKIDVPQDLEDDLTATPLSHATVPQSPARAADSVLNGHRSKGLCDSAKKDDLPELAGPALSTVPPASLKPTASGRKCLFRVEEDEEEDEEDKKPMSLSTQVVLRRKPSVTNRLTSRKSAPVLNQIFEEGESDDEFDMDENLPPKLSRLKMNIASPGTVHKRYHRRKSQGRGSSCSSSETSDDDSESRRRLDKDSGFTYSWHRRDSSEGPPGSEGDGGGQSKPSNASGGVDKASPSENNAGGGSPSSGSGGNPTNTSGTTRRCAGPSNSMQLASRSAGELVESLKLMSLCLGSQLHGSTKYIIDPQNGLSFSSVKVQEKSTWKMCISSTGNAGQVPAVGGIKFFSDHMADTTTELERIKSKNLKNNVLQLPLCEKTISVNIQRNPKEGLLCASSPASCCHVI
The note with it: kinase SNRK; for remaining activity at 1 µM: read-out: SNRK (% of control at 1 µM).

Where [15] appears, read: 10 µM, read-out: % of control at 10 µM.
Setting [16] is: kinase TYK2(JH1domain-catalytic), read-out: TYK2(JH1domain-catalytic) (% of control at 1 µM).
[17] abbreviates: kinase TYK2(JH2domain-pseudokinase), read-out: TYK2(JH2domain-pseudokinase) (% of control at 1 µM).

T9 sequence (Q02763 23-1124): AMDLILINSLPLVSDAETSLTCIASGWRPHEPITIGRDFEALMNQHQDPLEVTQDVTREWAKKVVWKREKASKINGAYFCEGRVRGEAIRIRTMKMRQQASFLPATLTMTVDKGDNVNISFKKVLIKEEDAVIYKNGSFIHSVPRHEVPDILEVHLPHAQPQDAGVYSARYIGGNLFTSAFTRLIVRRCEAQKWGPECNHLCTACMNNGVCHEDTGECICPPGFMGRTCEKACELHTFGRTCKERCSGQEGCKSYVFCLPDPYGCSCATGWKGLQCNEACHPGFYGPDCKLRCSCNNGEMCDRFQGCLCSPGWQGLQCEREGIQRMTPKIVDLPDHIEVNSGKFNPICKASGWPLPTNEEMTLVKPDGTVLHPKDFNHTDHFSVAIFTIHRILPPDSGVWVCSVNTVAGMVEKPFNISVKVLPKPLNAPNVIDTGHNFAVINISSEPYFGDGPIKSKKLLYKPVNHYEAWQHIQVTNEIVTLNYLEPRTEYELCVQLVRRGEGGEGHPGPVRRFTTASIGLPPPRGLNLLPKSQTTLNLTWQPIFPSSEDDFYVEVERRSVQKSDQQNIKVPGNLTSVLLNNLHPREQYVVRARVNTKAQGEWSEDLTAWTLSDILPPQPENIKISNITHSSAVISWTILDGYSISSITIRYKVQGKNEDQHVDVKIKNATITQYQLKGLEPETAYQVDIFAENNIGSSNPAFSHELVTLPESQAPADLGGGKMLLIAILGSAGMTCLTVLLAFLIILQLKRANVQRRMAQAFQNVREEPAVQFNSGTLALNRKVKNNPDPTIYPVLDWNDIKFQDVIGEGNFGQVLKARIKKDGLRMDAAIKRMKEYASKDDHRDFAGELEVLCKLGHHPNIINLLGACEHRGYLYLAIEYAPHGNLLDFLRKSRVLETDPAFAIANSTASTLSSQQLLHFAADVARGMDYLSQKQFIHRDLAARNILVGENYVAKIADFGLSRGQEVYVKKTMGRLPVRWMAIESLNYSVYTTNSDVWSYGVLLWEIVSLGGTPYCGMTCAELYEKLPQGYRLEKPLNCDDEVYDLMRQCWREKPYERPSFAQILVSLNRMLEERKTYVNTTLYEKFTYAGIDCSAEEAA
T4 sequence (P12931 whole entry): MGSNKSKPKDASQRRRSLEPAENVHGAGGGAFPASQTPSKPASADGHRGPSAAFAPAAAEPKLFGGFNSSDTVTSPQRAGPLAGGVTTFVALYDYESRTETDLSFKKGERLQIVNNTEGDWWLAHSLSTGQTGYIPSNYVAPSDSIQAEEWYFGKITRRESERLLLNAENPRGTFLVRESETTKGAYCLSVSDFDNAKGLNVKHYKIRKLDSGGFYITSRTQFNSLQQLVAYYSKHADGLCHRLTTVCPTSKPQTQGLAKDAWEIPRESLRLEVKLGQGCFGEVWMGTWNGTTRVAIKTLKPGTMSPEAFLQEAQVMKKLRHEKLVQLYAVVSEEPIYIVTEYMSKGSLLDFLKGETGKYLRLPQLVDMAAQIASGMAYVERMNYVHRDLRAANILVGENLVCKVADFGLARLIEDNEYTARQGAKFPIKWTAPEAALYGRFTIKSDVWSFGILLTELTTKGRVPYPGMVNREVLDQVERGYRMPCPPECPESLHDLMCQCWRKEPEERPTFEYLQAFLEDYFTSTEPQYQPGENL
T11 sequence (Q15375 28-998): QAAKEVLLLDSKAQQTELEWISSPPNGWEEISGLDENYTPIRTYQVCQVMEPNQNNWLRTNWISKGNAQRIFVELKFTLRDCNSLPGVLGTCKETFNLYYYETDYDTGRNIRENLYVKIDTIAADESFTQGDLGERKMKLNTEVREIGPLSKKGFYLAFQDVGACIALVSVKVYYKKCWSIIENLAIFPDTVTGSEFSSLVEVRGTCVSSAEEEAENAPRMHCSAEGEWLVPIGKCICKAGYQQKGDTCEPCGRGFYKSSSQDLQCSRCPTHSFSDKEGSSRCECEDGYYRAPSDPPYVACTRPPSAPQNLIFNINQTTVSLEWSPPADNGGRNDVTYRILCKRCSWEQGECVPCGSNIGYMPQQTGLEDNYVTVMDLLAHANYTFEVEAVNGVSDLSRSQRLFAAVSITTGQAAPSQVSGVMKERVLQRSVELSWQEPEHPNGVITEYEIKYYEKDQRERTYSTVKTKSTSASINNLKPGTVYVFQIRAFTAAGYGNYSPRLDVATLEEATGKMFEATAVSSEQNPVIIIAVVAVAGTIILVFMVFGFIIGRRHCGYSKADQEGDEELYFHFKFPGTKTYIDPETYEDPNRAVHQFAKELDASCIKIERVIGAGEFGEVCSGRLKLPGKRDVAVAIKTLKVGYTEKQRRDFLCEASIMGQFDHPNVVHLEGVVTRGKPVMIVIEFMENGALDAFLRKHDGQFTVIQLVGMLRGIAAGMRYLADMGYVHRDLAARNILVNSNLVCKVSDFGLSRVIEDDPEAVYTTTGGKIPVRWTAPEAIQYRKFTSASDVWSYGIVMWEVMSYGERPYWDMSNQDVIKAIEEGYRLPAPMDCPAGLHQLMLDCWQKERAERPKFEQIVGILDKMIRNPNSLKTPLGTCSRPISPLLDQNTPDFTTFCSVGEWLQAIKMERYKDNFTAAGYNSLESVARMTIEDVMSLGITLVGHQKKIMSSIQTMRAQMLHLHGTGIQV
T2 sequence (P07332 whole entry): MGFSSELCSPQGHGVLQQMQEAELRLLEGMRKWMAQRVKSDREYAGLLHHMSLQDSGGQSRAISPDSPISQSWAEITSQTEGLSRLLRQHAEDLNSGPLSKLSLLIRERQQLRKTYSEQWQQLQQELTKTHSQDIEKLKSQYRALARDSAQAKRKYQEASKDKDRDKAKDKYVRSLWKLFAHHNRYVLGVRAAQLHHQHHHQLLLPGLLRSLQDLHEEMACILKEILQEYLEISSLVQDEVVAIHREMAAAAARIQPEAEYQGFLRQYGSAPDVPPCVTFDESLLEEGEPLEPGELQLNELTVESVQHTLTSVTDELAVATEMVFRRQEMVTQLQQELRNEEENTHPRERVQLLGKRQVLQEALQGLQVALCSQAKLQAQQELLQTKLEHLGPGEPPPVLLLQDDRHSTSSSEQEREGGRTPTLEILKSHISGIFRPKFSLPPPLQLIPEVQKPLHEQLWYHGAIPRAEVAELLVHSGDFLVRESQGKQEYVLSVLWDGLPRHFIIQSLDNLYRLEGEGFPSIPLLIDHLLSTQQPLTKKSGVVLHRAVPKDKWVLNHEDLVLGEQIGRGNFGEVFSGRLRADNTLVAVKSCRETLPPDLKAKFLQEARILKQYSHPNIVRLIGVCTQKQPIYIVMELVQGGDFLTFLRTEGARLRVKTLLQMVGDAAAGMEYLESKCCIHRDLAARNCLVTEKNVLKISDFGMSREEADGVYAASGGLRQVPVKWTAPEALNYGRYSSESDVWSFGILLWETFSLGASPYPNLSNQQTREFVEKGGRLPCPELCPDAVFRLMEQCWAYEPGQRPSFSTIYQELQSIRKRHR
T12 sequence (Q96NX5 whole entry): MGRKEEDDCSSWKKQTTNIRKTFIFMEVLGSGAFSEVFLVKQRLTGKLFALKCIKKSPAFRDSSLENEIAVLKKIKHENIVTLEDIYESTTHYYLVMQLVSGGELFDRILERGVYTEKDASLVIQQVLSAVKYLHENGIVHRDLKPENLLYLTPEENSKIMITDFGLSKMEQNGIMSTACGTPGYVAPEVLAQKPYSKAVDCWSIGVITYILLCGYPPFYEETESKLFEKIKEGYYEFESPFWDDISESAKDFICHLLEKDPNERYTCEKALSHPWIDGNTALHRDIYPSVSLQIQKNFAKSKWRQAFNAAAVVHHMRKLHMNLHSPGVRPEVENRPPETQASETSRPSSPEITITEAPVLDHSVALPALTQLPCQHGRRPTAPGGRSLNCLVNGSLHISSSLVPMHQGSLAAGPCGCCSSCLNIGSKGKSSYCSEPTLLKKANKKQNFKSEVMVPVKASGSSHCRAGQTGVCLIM
T5 sequence (P15056 whole entry): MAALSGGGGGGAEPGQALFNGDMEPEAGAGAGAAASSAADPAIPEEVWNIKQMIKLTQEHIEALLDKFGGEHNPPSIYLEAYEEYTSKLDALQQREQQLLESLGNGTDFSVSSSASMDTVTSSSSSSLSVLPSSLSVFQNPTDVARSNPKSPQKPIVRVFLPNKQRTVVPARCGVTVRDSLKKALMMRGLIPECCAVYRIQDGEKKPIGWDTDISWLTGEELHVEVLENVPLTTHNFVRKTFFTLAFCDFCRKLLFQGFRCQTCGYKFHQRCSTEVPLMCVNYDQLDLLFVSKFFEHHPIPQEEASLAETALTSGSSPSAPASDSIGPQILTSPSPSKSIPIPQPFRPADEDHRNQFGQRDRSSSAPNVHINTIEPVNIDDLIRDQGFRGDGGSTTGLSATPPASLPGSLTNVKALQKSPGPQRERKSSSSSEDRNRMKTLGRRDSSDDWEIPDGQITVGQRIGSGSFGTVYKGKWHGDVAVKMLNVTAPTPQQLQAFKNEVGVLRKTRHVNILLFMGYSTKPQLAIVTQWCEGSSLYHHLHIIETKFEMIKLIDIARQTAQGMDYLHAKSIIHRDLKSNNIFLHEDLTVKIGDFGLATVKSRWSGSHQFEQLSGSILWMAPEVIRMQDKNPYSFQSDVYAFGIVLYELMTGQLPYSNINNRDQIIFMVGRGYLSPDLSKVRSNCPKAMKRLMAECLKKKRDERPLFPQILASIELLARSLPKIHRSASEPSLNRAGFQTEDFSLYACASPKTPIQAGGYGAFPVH

For the compound `Nc1cc(C(F)(F)F)c(-c2cc(N3CCOCC3)nc(N3CCOCC3)n2)cn1` [Buparlisib], the remaining activity at 1 µM is 90% on panel of 442 kinases [1]; 100% at panel of 442 kinases [2]; 100% at panel of 442 kinases [3]; 94% at panel of 442 kinases [4]; 59% on panel of 442 kinases [5]; 100% at panel of 442 kinases [6] (setting [16]). The remaining activity at 1 µM at panel of 442 kinases [6] (setting [17]) turned out to be 32%; on panel of 442 kinases [7] it was 20%; on panel of 442 kinases [8], 100%; on panel of 442 kinases [9], 100%; on panel of 442 kinases [10], 100%; on panel of 442 kinases [11] it was 100%. For the same compound, the remaining activity at 1 µM on panel of 442 kinases [12] turned out to be 100%; at panel of 442 kinases [13], 100%; at panel of 442 kinases [14] it was 90%. Besides, the remaining activity at 10 µM at panel of 442 kinases [1] (setting [15]) amounted to 97%; at panel of 442 kinases [2] (setting [15]) it was 100%; at panel of 442 kinases [3] (setting [15]), 100%; on panel of 442 kinases [4] (10 µM, read-out: SRC (% of control at 10 µM)), 100%; on panel of 442 kinases [5] (setting [15]) it was 40%; at panel of 442 kinases [6] (kinase TYK2(JH1domain-catalytic), read-out: TYK2(JH1domain-catalytic) (% of control at 10 µM)), 100%. For the same compound, the remaining activity at 10 µM was found to be 22% on panel of 442 kinases [6] (kinase TYK2(JH2domain-pseudokinase), read-out: TYK2(JH2domain-pseudokinase) (% of control at 10 µM)); 4.6% on panel of 442 kinases [7] (setting [15]); 100% on panel of 442 kinases [8] (setting [15]); 100% on panel of 442 kinases [9] (10 µM, read-out: TIE2 (% of control at 10 µM)); 100% at panel of 442 kinases [10] (10 µM, read-out: PRKD1 (% of control at 10 µM)); 100% on panel of 442 kinases [11] (setting [15]). Besides, the remaining activity at 10 µM on panel of 442 kinases [12] (setting [15]) stood at 100%; at panel of 442 kinases [13] (setting [15]), 100%; at panel of 442 kinases [14] (10 µM, read-out: SNRK (% of control at 10 µM)), 100%.
For the compound `Cn1c(=O)n(-c2ccc(C(C)(C)C#N)cc2)c2c3cc(-c4cnc5ccccc5c4)ccc3ncc21` [Dactolisib, 2-methyl-2-[4-(3-methyl-2-oxo-8-quinolin-3-yl-2,3-dihydroimidazo[4,5-c]quinolin-1-yl)-phenyl] propionitrile], the remaining activity at 1 µM on panel of 442 kinases [1] is 89%; on panel of 442 kinases [2], 92%; on panel of 442 kinases [3], 95%; on panel of 442 kinases [4], 94%; on panel of 442 kinases [5], 88%; on panel of 442 kinases [6] (setting [16]), 26%. Also, the remaining activity at 1 µM at panel of 442 kinases [6] (setting [17]) was 65%; at panel of 442 kinases [7] it was 0%; on panel of 442 kinases [8], 91%; at panel of 442 kinases [9], 100%; at panel of 442 kinases [10], 100%; at panel of 442 kinases [11] it was 100%. The values for the remaining activity at 1 µM at panel of 442 kinases [12], on panel of 442 kinases [13] and at panel of 442 kinases [14] were 87%, 100% and 71%, respectively.
With `COc1ncc(-c2ccc3nccc(-c4ccnnc4)c3c2)cc1NS(=O)(=O)c1ccc(F)cc1F` [Omipalisib], the remaining activity at 1 µM at panel of 442 kinases [1] was 94%; at panel of 442 kinases [2] it was 100%; at panel of 442 kinases [3], 100%; on panel of 442 kinases [4] it was 100%; on panel of 442 kinases [6] (setting [16]), 100%; on panel of 442 kinases [6] (setting [17]), 78%. For the same compound, the remaining activity at 1 µM on panel of 442 kinases [7] is 0%; at panel of 442 kinases [8] it was 89%; at panel of 442 kinases [9] it was 100%; at panel of 442 kinases [10] it was 100%; at panel of 442 kinases [11] it was 100%; on panel of 442 kinases [12] it was 100%. Further, the remaining activity at 1 µM on panel of 442 kinases [13] is 43%; at panel of 442 kinases [14], 88%.
For `FC(F)c1nc2ccccc2n1-c1nc(N2CCOCC2)nc(N2CCOCC2)n1` [ZSTK474, 2-(difluoromethyl)-1-[4,6-di(4-morpholinyl)-1,3,5-triazin-2-yl]-1H-benzimidazole], the remaining activity at 1 µM at panel of 442 kinases [1] stood at 100%; at panel of 442 kinases [2] it was 100%; at panel of 442 kinases [3], 100%; on panel of 442 kinases [4] it was 100%; on panel of 442 kinases [5], 61%; at panel of 442 kinases [6] (setting [16]), 93%. The remaining activity at 1 µM at panel of 442 kinases [6] (setting [17]) amounted to 97%; on panel of 442 kinases [7] it was 0.75%; at panel of 442 kinases [8] it was 100%; on panel of 442 kinases [9] it was 100%; at panel of 442 kinases [10] it was 100%; at panel of 442 kinases [11], 100%. In addition, the remaining activity at 1 µM on panel of 442 kinases [12] stood at 91%; on panel of 442 kinases [13], 92%; on panel of 442 kinases [14], 100%.
